The nature of data set [1]: CLint estimates using human liver microsomes (Method 4). Type of data set: in vitro ADME. Conditions: pH 7.4, 1 μM compound, read-out: Mics - CLint (HLM CLint). The essentials: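 Compound at 1 μM (0.1% DMSO) incubated with human liver microsomes (0.5 mg protein/mL) in 0.1 M phosphate pH 7.4 at 37 °C, started with 1 mM NADPH. Samples taken 2–50 min, quenched in methanol, measured by LC/MS/MS (MRM). Half-life and CLint derived from the slope of ln peak area versus time.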

The target of the next data set is T1, Wee-1 kinase (Homo sapiens, UniProt P30291).
T1 construct: purchased Invitrogen PV3817
T1 sequence (P30291 whole entry): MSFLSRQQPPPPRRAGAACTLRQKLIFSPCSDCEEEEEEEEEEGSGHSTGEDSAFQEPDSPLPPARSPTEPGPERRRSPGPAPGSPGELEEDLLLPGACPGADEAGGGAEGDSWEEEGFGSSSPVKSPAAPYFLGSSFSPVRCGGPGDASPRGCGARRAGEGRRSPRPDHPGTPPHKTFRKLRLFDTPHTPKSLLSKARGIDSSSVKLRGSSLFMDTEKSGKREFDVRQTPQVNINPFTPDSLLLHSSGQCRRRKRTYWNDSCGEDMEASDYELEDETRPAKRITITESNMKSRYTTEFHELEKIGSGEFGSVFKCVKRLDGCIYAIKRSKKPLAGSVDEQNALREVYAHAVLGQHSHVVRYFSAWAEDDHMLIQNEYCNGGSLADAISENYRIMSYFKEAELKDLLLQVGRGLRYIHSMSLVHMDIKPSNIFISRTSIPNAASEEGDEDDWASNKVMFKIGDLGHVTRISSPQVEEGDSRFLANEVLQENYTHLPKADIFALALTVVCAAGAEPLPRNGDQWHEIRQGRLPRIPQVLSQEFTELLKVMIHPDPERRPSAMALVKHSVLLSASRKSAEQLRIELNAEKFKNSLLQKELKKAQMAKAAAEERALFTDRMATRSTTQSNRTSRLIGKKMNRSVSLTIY
Nature of the data set: Measurement of Wee-1 kinase activity (ADP-Glo luminescent kit). In kind it is biochemical. The essentials: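 Activated Wee-1 was pre-incubated 30 min at RT with compound in 40 mM Tris-HCl, 20 mM MgCl2, 0.1 mg/mL BSA and 2 mM DTT. The reaction was started with an aliquot of 2.0 μg/mL poly(Lys,Tyr 4:1) plus 30 μM ATP and run 1 h at RT. ADP-Glo luminescence gave IC50 by non-linear fit.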
In general terms: In ADP-Glo the light output rises with the ADP produced.

This passage reports microsomal CLint and IC50 results from patent US9850247B2 (Almac Discovery Limited, priority 2013, dated 2017).

By IC50 is commonly meant the concentration that inhibits the measured activity by half.

Regarding `CN1CC2CN(c3ccc(Nc4ncc5c(n4)N(C)CN(c4c(Cl)cccc4Cl)C5=O)cc3)CC2C1` (stereo not drawn) [Example 35, 3-(2,6-dichlorophenyl)-1-methyl-7-((4-(5-methylhexahydropyrrolo[3,4-c]pyrrol-2(1H)-yl)phenyl)amino)-2,3-dihydropyrimido[4,5-d]pyrimidin-4(1H)-one], in data set [1], the microsomal CLint at 1 μM was 15 to 50 µL/min/mg. Further, the IC50 at Wee-1 kinase was 10 to 100 nM.

As for `Cc1cc(Nc2ncc3c(n2)N(C)CN(c2c(C)cccc2Cl)C3=O)ccc1N1C[C@@H]2C[C@H]1CN2` [Example 112, 7-((4-((1S,4S)-2,5-diazabicyclo[2.2.1]heptan-2-yl)-3-methylphenyl)amino)-3-(2-chloro-6-methylphenyl)-1-methyl-2,3-dihydropyrimido[4,5-d]pyrimidin-4(1H)-one], the microsomal CLint at 1 μM in data set [1] is at most 15 µL/min/mg. Further, the IC50 on Wee-1 kinase lay within 10 to 100 nM.

Consider `CN1CN(c2c(Cl)cccc2Cl)C(=O)c2cnc(Nc3ccc(N4CCN(C5CC5)CC4)cc3)nc21` [Example 115, 7-((4-(4-cyclopropylpiperazin-1-yl)phenyl)amino)-3-(2,6-dichlorophenyl)-1-methyl-2,3-dihydropyrimido[4,5-d]pyrimidin-4(1H)-one], for which, in data set [1], the microsomal CLint at 1 μM was 15 to 50 µL/min/mg. The IC50 at Wee-1 kinase is at least 100 nM.

With `CN1CN(c2c(Cl)cccc2Cl)C(=O)c2cnc(Nc3ccc(OC4CCNCC4)cc3)nc21` [Example 87, 3-(2,6-dichlorophenyl)-1-methyl-7-((4-(piperidin-4-yloxy)phenyl)amino)-2,3-dihydropyrimido[4,5-d]pyrimidin-4(1H)-one], the microsomal CLint at 1 μM in data set [1] was at most 15 µL/min/mg. Besides, the IC50 on Wee-1 kinase lay in the range of 10 to 100 nM.

For `Cc1cc(Nc2ncc3c(n2)N(C)CN(c2c(Cl)cccc2Cl)C3=O)ccc1N1C[C@H]2C[C@@H]1CN2` [Example 118, 7-((4-((1R,4R)-2,5-diazabicyclo[2.2.1]heptan-2-yl)-3-methylphenyl)amino)-3-(2,6-dichlorophenyl)-1-methyl-2,3-dihydropyrimido[4,5-d]pyrimidin-4(1H)-one], in data set [1], the microsomal CLint at 1 μM was at most 15 µL/min/mg. Further, the IC50 at Wee-1 kinase lay within 10 to 100 nM.

As to `COC[C@@H]1CNCCN1c1ccc(Nc2ncc3c(n2)N(C)CN(c2c(Cl)cccc2Cl)C3=O)cc1` [Example 130, (S)-3-(2,6-dichlorophenyl)-7-((4-(2-(methoxymethyl)piperazin-1-yl)phenyl)amino)-1-methyl-2,3-dihydropyrimido[4,5-d]pyrimidin-4(1H)-one], the microsomal CLint at 1 μM in data set [1] is 15 to 50 µL/min/mg. In addition, the IC50 on Wee-1 kinase is 10 to 100 nM.

On to `CCN1CCN(c2ccc(Nc3ncc4c(n3)N(C)CN(c3c(Cl)cccc3Cl)C4=O)cc2)CC1` [Example 122, 3-(2,6-dichlorophenyl)-7-((4-(4-ethylpiperazin-1-yl)phenyl)amino)-1-methyl-2,3-dihydropyrimido[4,5-d]pyrimidin-4(1H)-one], for which, in data set [1], the microsomal CLint at 1 μM is 15 to 50 µL/min/mg. Moreover, at Wee-1 kinase, the IC50 was in the range of 10 to 100 nM.

With `COC[C@@H]1CN(c2ccc(Nc3ncc4c(n3)N(C)CN(c3c(Cl)cccc3Cl)C4=O)cc2)CCN1C` [Example 66, (S)-3-(2,6-dichlorophenyl)-7-((4-(3-(methoxymethyl)-4-methylpiperazin-1-yl)phenyl)amino)-1-methyl-2,3-dihydropyrimido[4,5-d]pyrimidin-4(1H)-one], the microsomal CLint at 1 μM in data set [1] is 15 to 50 µL/min/mg. The IC50 at Wee-1 kinase lay within 10 to 100 nM.

On to `CN1CN(c2c(Cl)cccc2Cl)C(=O)c2cnc(Nc3ccc(C4(N)CCC4)cc3)nc21` [Example 37, 7-((4-(1-aminocyclobutyl)phenyl)amino)-3-(2,6-dichlorophenyl)-1-methyl-2,3-dihydropyrimido[4,5-d]pyrimidin-4(1H)-one], for which the microsomal CLint at 1 μM in data set [1] is 15 to 50 µL/min/mg. Besides, the IC50 on Wee-1 kinase lay in the range of 10 to 100 nM.
